Measurements: ChEMBL document CHEMBL5647696, “Are all cyclin-dependent kinases 4/6 inhibitors created equal?” (NPJ Breast Cancer, 2019)

What was measured:
[1] = Protein binding in human plasma; assay type: ADME, cell-free; conditions: read-out: PPB (converted)
[2] = Volume of distribution in human; assay type: ADME
[3] = Time to reach peak level in human; assay type: ADME
[4] = Bioavailability in human; assay type: ADME, organism-based; conditions: in vivo
[5] = Drug excretion in human urine; assay type: ADME, tissue-based; conditions: read-out: Drug excretion
[6] = Drug excretion in human feces; assay type: ADME, tissue-based; conditions: faeces, read-out: Drug excretion
[7] = Elimination half life in human; assay type: ADME; conditions: read-out: beta t1/2 (converted)

fraction unbound [1] | Vd [2] [L] | Tmax [3] [h] | bioavailability [4] [%] | dose excreted [5] [%] | dose excreted [6] [%] | half-life [7] [h] | SMILES
0.07 | 690 | 8 | 45 | 3 | 81 | – | CCN1CCN(Cc2ccc(Nc3ncc(F)c(-c4cc(F)c5nc(C)n(C(C)C)c5c4)n3)nc2)CC1 [ABEMACICLIB]
– | 2580 | 6 | – | – | – | 29 | CC(=O)c1c(C)c2cnc(Nc3ccc(N4CCNCC4)cn3)nc2n(C2CCCC2)c1=O [PALBOCICLIB]
– | 1090 | 1 | – | 23 | 69 | 30 | CN(C)C(=O)c1cc2cnc(Nc3ccc(N4CCNCC4)cn3)nc2n1C1CCCC1 [RIBOCICLIB]
